Laboratory results reported in patent publication US20070049564A1 (Wyeth, priority 2005, published 2007).
In brackets after ≈: the same amount, converted by molar mass. Read-outs that look alike come from different tables or passages of the source.

Experiments:
E. coli = assay: Range of MIC for E. coli strains; conditions: Escherichia coli
Staph. aureus Smith = assay: In vivo activity (oral, iv; ED50) against Staph. aureus Smith in mice
Staph. = assay: Range of MIC for Staph. strains, including MRSA; conditions: Staphylococcus aureus, MRSA
[1] = 20 h, read-out: Range of MIC, E. coli (Mouse Serum)
[2] = read-out: Minimum inhibitory concentration (MIC), E. coli (mouse serum)
[3] = read-out: Minimum inhibitory concentration (MIC), E. coli (water)
[4] = read-out: Range of MIC, E. coli (Water)
[5] = Staphylococcus aureus, in Mus musculus, po, read-out: ED50 Staph Smith SOD
[6] = iv, read-out: ED50 Staph Smith SIV
[7] = read-out: Minimum inhibitory concentration (MIC), Staph. (mouse serum)
[8] = read-out: Minimum inhibitory concentration (MIC), Staph. (water)
[9] = read-out: Range of MIC, Staph (Mouse Serum)
[10] = read-out: Range of MIC, Staph (Water)

Row | SMILES | MIC (E. coli; [1]) | MIC (E. coli; [2]) | MIC (E. coli; [3]) | MIC (E. coli; [4]) | MIC (Staph.; [7]) | MIC (Staph.; [8]) | MIC (Staph.; [9]) | MIC (Staph.; [10]) | MIC (E. coli; read-out: Range of MIC, E. coli (mouse serum)) | MIC (Staph.; read-out: Range of MIC, Staph. (mouse serum)) | MIC (Staph.; read-out: Range of MIC, Staph. (water)) | ED50 (Staph. aureus Smith; [5]) | ED50 (Staph. aureus Smith; [6])
1 | CCCCN(CC(=O)Nc1cc(N(C)C)c2c(c1O)C(=O)C1=C(O)[C@]3(O)C(=O)C(C(N)=O)=C(O)[C@@H](N(C)C)[C@@H]3C[C@@H]1C2)C(=O)OCOC(=O)c1ccc(C(C)(C)C)cc1 [Example 20, ({[(2-{[(5aR,6aS,7S,10aS)-9-(aminocarbonyl)-4,7-bis(dimethylamino)-1,8,10a,11-tetrahydroxy-10,12-dioxo-5,5a,6,6a,7,10,10a,12-octahydrotetracen-2-yl]amino}-2-oxoethyl)(butyl)amino]carbonyl}oxy)methyl 4-tert-butylbenzoate] | 0.5 to 2 µg/mL (≈ 0.61 to 2.44 µM) | 0.5 to 2 µg/mL (≈ 0.61 to 2.44 µM) | > 64 µg/mL | > 64 µg/mL | 1 to 4 µg/mL (≈ 1.22 to 4.88 µM) |  | 1 to 4 µg/mL (≈ 1.22 to 4.88 µM) |  |  |  |  | 19.4 mg/kg | 0.6 mg/kg
2 | CCCCN(CC(=O)Nc1cc(N(C)C)c2c(c1O)C(=O)C1=C(O)[C@]3(O)C(=O)C(C(N)=O)=C(O)[C@@H](N(C)C)[C@@H]3C[C@@H]1C2)C(=O)OCOC(=O)c1ccsc1 [Example 29, ({[(2-{[(5aR,6aS,7S,10aS)-9-(aminocarbonyl)-4,7-bis(dimethylamino)-1,8,10a,11-tetrahydroxy-10,12-dioxo-5,5a,6,6a,7,10,10a,12-octahydrotetracen-2-yl]amino}-2-oxoethyl)(butyl)amino]carbonyl}oxy)methyl thiophene-3-carboxylate] | 0.5 to 1 µg/mL (≈ 0.649 to 1.3 µM) | 0.5 to 1 µg/mL (≈ 0.649 to 1.3 µM) | > 64 µg/mL | > 64 µg/mL | 0.25 to 2 µg/mL (≈ 0.325 to 2.6 µM) | 1 to 4 µg/mL (≈ 1.3 to 5.2 µM) | 0.25 to 2 µg/mL (≈ 0.325 to 2.6 µM) | 1 to 4 µg/mL (≈ 1.3 to 5.2 µM) |  |  |  | 13.7 mg/kg | 0.43 mg/kg
3 | CCCN(CC(=O)Nc1cc(N(C)C)c2c(c1O)C(=O)C1=C(O)[C@]3(O)C(=O)C(C(N)=O)=C(O)[C@@H](N(C)C)[C@@H]3C[C@@H]1C2)C(=O)OCOC(=O)c1ccco1 [Example 31, ({[(2-{[(5aR,6aS,7S,10aS)-9-(aminocarbonyl)-4,7-bis(dimethylamino)-1,8,10a,11-tetrahydroxy-10,12-dioxo-5,5a,6,6a,7,10,10a,12-octahydrotetracen-2-yl]amino}-2-oxoethyl)(propyl)amino]carbonyl}oxy)methyl 2-furate] | 0.5 to 1 µg/mL (≈ 0.676 to 1.35 µM) |  |  |  |  |  | 0.25 to 2 µg/mL (≈ 0.338 to 2.7 µM) | 0.5 to 4 µg/mL (≈ 0.676 to 5.41 µM) | 0.5 to 1 µg/mL (≈ 0.676 to 1.35 µM) | 0.25 to 2 µg/mL (≈ 0.338 to 2.7 µM) | 0.5 to 4 µg/mL (≈ 0.676 to 5.41 µM) | 11.1 mg/kg | 0.31 mg/kg
4 | CCCCN(CC(=O)Nc1cc(N(C)C)c2c(c1O)C(=O)C1=C(O)[C@]3(O)C(=O)C(C(N)=O)=C(O)[C@@H](N(C)C)C3CC1C2)C(=O)OC(C)OC(C)=O (stereo partly drawn) [Example 32, 1-({[(2-{[(7S,10aS)-9-(aminocarbonyl)-4,7-bis(dimethylamino)-1,8,10a,11-tetrahydroxy-10,12-dioxo-5,5a,6,6a,7,10,10a,12-octahydrotetracen-2-yl]amino}-2-oxoethyl)(butyl)amino]carbonyl}oxy)ethyl acetate] | 0.5 to 1 µg/mL |  |  | 1 to 4 µg/mL |  |  | 0.25 to 2 µg/mL | 0.5 to 4 µg/mL |  |  |  | 7.7 mg/kg | 0.56 mg/kg
5 | CCCCN(CC(=O)Nc1cc(N(C)C)c2c(c1O)C(=O)C1=C(O)[C@]3(O)C(=O)C(C(N)=O)=C(O)[C@@H](N(C)C)C3CC1C2)C(=O)OCOC(=O)C1CCCCC1 (stereo partly drawn) [Example 34, ({[(2-{[(7S,10aS)-9-(aminocarbonyl)-4,7-bis(dimethylamino)-1,8,10a,11-tetrahydroxy-10,12-dioxo-5,5a,6,6a,7,10,10a,12-octahydrotetracen-2-yl]amino}-2-oxoethyl)(butyl)amino]carbonyl}oxy)methyl cyclohexanecarboxylate] | 0.5 to 1 µg/mL (≈ 0.649 to 1.3 µM) | 0.5 to 1 µg/mL (≈ 0.649 to 1.3 µM) | 4 to 16 µg/mL (≈ 5.2 to 20.8 µM) | 4 to 16 µg/mL (≈ 5.2 to 20.8 µM) | 0.25 to 4 µg/mL (≈ 0.325 to 5.2 µM) | 0.25 to 4 µg/mL (≈ 0.325 to 5.2 µM) | 0.25 to 4 µg/mL (≈ 0.325 to 5.2 µM) | 0.25 to 4 µg/mL (≈ 0.325 to 5.2 µM) |  |  |  | 12.9 mg/kg | 0.71 mg/kg
6 | CCCCN(CC(=O)Nc1cc(N(C)C)c2c(c1O)C(=O)C1=C(O)[C@]3(O)C(=O)C(C(N)=O)=C(O)[C@@H](N(C)C)[C@@H]3C[C@@H]1C2)C(=O)OCOC(=O)C12CC3CC(CC(C3)C1)C2 [Example 39, ({[(2-{[(5aR,6aS,7S,10aS)-9-(aminocarbonyl)-4,7-bis(dimethylamino)-1,8,10a,11-tetrahydroxy-10,12-dioxo-5,5a,6,6a,7,10,10a,12-octahydrotetracen-2-yl]amino}-2-oxoethyl)(butyl)amino]carbonyl}oxy)methyl adamantane-1-carboxylate] | 1 to 4 µg/mL (≈ 1.22 to 4.87 µM) | 1 to 4 µg/mL (≈ 1.22 to 4.87 µM) | 16 to 32 µg/mL (≈ 19.5 to 38.9 µM) | 16 to 32 µg/mL (≈ 19.5 to 38.9 µM) | 1 to 4 µg/mL (≈ 1.22 to 4.87 µM) | 2 to 16 µg/mL (≈ 2.43 to 19.5 µM) | 1 to 4 µg/mL (≈ 1.22 to 4.87 µM) | 2 to 16 µg/mL (≈ 2.43 to 19.5 µM) |  |  |  | 13.3 mg/kg | 0.6 mg/kg
7 | CN(C)c1cc(NC(=O)CN(C(=O)OCOC(=O)c2ccc(C(=O)c3ccccc3)cc2)C(C)(C)C)c(O)c2c1C[C@H]1C[C@H]3[C@H](N(C)C)C(O)=C(C(N)=O)C(=O)[C@@]3(O)C(O)=C1C2=O [Example 107, ({[(2-{[(5aR,6aS,7S,10aS)-9-(aminocarbonyl)-4,7-bis(dimethylamino)-1,8,10a,11-tetrahydroxy-10,12-dioxo-5,5a,6,6a,7,10,10a,12-octahydrotetracen-2-yl]amino}-2-oxoethyl)(tert-butyl)amino]carbonyl}oxy)methyl 4-benzoylbenzoate] | > 64 µg/mL |  |  | 0.5 to 1 µg/mL (≈ 0.576 to 1.15 µM) |  |  | 2 to 8 µg/mL (≈ 2.3 to 9.22 µM) | 0.5 to 1 µg/mL (≈ 0.576 to 1.15 µM) |  |  |  |  | 
8 | CCCN(CC(=O)Nc1cc(N(C)C)c2c(c1O)C(=O)C1=C(O)[C@]3(O)C(=O)C(C(N)=O)=C(O)[C@@H](N(C)C)C3CC1C2)C(=O)OCc1oc(=O)oc1-c1ccc(OC)cc1 (stereo partly drawn) [Example 111, [5-(4-methoxyphenyl)-2-oxo-1,3-dioxol-4-yl]methyl 2-{[(7S,10aS)-9-(aminocarbonyl)-4,7-bis(dimethylamino)-1,8,10a,11-tetrahydroxy-10,12-dioxo-5,5a,6,6a,7,10,10a, 12-octahydrotetracen-2-yl]amino}-2-oxoethyl(propyl)carbamate] | 0.25 to 1 µg/mL (≈ 0.305 to 1.22 µM) |  |  | 1 to 4 µg/mL (≈ 1.22 to 4.88 µM) |  |  | 0.5 to 8 µg/mL (≈ 0.61 to 9.76 µM) | 1 to 16 µg/mL (≈ 1.22 to 19.5 µM) |  |  |  |  | 

The next lines start with results.

Row | MIC (E. coli; [1]) | MIC (E. coli; [2]) | MIC (E. coli; [3]) | MIC (E. coli; [4]) | MIC (Staph.; [7]) | MIC (Staph.; [8]) | MIC (Staph.; [9]) | MIC (Staph.; [10]) | MIC (E. coli; read-out: Range of MIC, E. coli (mouse serum)) | MIC (Staph.; read-out: Range of MIC, Staph. (mouse serum)) | MIC (Staph.; read-out: Range of MIC, Staph. (water)) | SMILES | ED50 (Staph. aureus Smith; [5]) | ED50 (Staph. aureus Smith; [6])
9 | 0.5 to 2 µg/mL (≈ 0.648 to 2.59 µM) | 0.5 to 2 µg/mL (≈ 0.648 to 2.59 µM) | 32 to 64 µg/mL (≈ 41.5 to 82.9 µM) | 32 to 64 µg/mL (≈ 41.5 to 82.9 µM) | 1 to 4 µg/mL (≈ 1.3 to 5.18 µM) | 2 to 32 µg/mL (≈ 2.59 to 41.5 µM) | 1 to 4 µg/mL (≈ 1.3 to 5.18 µM) | 2 to 32 µg/mL (≈ 2.59 to 41.5 µM) |  |  |  | CCCCCCC(=O)OCOC(=O)N(CCCC)CC(=O)Nc1cc(N(C)C)c2c(c1O)C(=O)C1=C(O)[C@]3(O)C(=O)C(C(N)=O)=C(O)[C@@H](N(C)C)[C@@H]3C[C@@H]1C2 [Example 17, ({[(2-{[(5aR,6aS,7S,10aS)-9-(aminocarbonyl)-4,7-bis(dimethylamino)-1,8,10a,11-tetrahydroxy-10,12-dioxo-5,5a,6,6a,7,10,10a,12-octahydrotetracen-2-yl]amino}-2-oxoethyl)(butyl)amino]carbonyl}oxy)methyl heptanoate] | 59.9 mg/kg | 1.07 mg/kg
10 | 0.5 to 2 µg/mL (≈ 0.674 to 2.7 µM) | 0.5 to 2 µg/mL (≈ 0.674 to 2.7 µM) | 4 to 8 µg/mL (≈ 5.39 to 10.8 µM) | 4 to 8 µg/mL (≈ 5.39 to 10.8 µM) | 1 to 4 µg/mL (≈ 1.35 to 5.39 µM) | 1 to 4 µg/mL (≈ 1.35 to 5.39 µM) | 1 to 4 µg/mL (≈ 1.35 to 5.39 µM) | 1 to 4 µg/mL (≈ 1.35 to 5.39 µM) |  |  |  | CCCCN(CC(=O)Nc1cc(N(C)C)c2c(c1O)C(=O)C1=C(O)[C@]3(O)C(=O)C(C(N)=O)=C(O)[C@@H](N(C)C)[C@@H]3C[C@@H]1C2)C(=O)OCOC(=O)C1CCC1 [Example 18, ({[(2-{[(5aR,6aS,7S,10aS)-9-(aminocarbonyl)-4,7-bis(dimethylamino)-1,8,10a,11-tetrahydroxy-10,12-dioxo-5,5a,6,6a,7,10,10a,12-octahydrotetracen-2-yl]amino}-2-oxoethyl)(butyl)amino]carbonyl}oxy)methyl cyclobutanecarboxylate] | 29 mg/kg | 0.6 mg/kg
11 | 0.5 to 1 µg/mL (≈ 0.663 to 1.33 µM) | 0.5 to 1 µg/mL (≈ 0.663 to 1.33 µM) |  |  | 0.25 to 2 µg/mL (≈ 0.332 to 2.65 µM) | 1 to 8 µg/mL (≈ 1.33 to 10.6 µM) | 0.25 to 2 µg/mL (≈ 0.332 to 2.65 µM) | 1 to 8 µg/mL (≈ 1.33 to 10.6 µM) |  |  |  | CCCCN(CC(=O)Nc1cc(N(C)C)c2c(c1O)C(=O)C1=C(O)[C@]3(O)C(=O)C(C(N)=O)=C(O)[C@@H](N(C)C)[C@@H]3C[C@@H]1C2)C(=O)OCOC(=O)c1ccco1 [Example 30, ({[(2-{[(5aR,6aS,7S,10aS)-9-(aminocarbonyl)-4,7-bis(dimethylamino)-1,8,10a,11-tetrahydroxy-10,12-dioxo-5,5a,6,6a,7,10,10a,12-octahydrotetracen-2-yl]amino}-2-oxoethyl)(butyl)amino]carbonyl}oxy)methyl 2-furate] | 15.1 mg/kg | 0.41 mg/kg
12 | 2 to 4 µg/mL (≈ 2.69 to 5.38 µM) |  |  | 4 to 32 µg/mL (≈ 5.38 to 43 µM) |  |  | 1 to 4 µg/mL (≈ 1.34 to 5.38 µM) | 2 to 4 µg/mL (≈ 2.69 to 5.38 µM) |  |  |  | CCCN(CC(=O)Nc1cc(N(C)C)c2c(c1O)C(=O)C1=C(O)[C@]3(O)C(=O)C(C(N)=O)=C(O)[C@@H](N(C)C)[C@@H]3C[C@@H]1C2)C(=O)OCOC(=O)C(C)(C)CC [Example 37, ({[(2-{[(5aR,6aS,7S,10aS)-9-(aminocarbonyl)-4,7-bis(dimethylamino)-1,8,10a,11-tetrahydroxy-10,12-dioxo-5,5a,6,6a,7,10,10a,12-octahydrotetracen-2-yl]amino}-2-oxoethyl)(propyl)amino]carbonyl}oxy)methyl 2,2-dimethylbutanoate] | 4.1 mg/kg | 0.55 mg/kg
